Our source for the TGI and GI50 values is PubChem BioAssay (NCI).

Some test systems named below: A498 renal; ACHN renal; HCT-15 colon; HT29 colon; KM12 colon; M14 melanoma; MCF7 breast; SF-295 CNS; SK-MEL-28 melanoma; SK-OV-3 ovarian.
Assay in all cases: NCI-60 cell line screen, 48 h

Structures are written as SMILES.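 Cultured in 96-well plates, cells were exposed to test compound for 48 hours across five concentrations. GI50 is the concentration that inhibits growth by half. TGI denotes the concentration required for complete inhibition of growth.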

In the case of `O=C(CCBr)N1CCN(C(=O)CCBr)CC1`, the TGI in the assay with A498 renal is 165 µM; with ACHN renal, 316 µM; in the assay with HCT-15 colon, 222 µM; in the assay on HT29 colon it was 280 µM; in the assay on KM12 colon, 181 µM; with M14 melanoma, 131 µM. Further, the TGI stood at 215 µM with MCF7 breast, 212 µM in the assay with SF-295 CNS, 252 µM in the assay with SK-MEL-28 melanoma and 212 µM in the assay with SK-OV-3 ovarian.

Regarding `COc1ccc2nc3c([N+](=O)[O-])ccc(NCCN(C)C)c3c(N)c2c1`, the TGI with A498 renal turned out to be 4.31 µM; in the assay with ACHN renal, 2.64 µM; with HCT-15 colon, 2.49 µM; with HT29 colon, 1.73 µM; in the assay on KM12 colon, 0.939 µM; in the assay on M14 melanoma, 3.03 µM. Besides, the TGI stood at 1.1 µM with MCF7 breast, 3.62 µM in the assay on SF-295 CNS, 4.16 µM in the assay with SK-MEL-28 melanoma and 3.13 µM with SK-OV-3 ovarian.

As for `CSc1ncc2c(n1)-c1ccccc1OC2N1CCOCC1` (stereo not drawn), the TGI in the assay on A498 renal was 56.7 µM; in the assay with ACHN renal, greater than 100 µM; with HCT-15 colon it was greater than 100 µM; in the assay on HT29 colon, greater than 100 µM; in the assay with KM12 colon, greater than 100 µM; in the assay on M14 melanoma it was greater than 100 µM. The TGI in the assay on MCF7 breast, with SF-295 CNS and with SK-OV-3 ovarian was greater than 100 µM each time.

As for `CCOC(=O)c1[nH]cc(C)c1-c1cccn1-c1ccc(Cl)cc1[N+](=O)[O-]`, the TGI is greater than 100 µM in the assay on A498 renal; greater than 100 µM in the assay on ACHN renal; greater than 100 µM in the assay on HCT-15 colon; 30.7 µM in the assay with HT29 colon; 52.9 µM with KM12 colon; 41 µM in the assay with M14 melanoma. The TGI with MCF7 breast was greater than 100 µM; in the assay on SF-295 CNS, 83 µM; in the assay with SK-MEL-28 melanoma it was 55.7 µM.

As for `COc1ccc2c(c1)N(Cc1ccc(Cl)cc1)CCC2N1CCCC1=O` (stereo not drawn), the GI50 with A498 renal was 3.22 µM; with ACHN renal, 4.85 µM; in the assay with HCT-15 colon, 4 µM; in the assay with HT29 colon it was 7.2 µM; in the assay on KM12 colon it was 4.84 µM; in the assay with M14 melanoma, 4.42 µM. Besides, the GI50 in the assay on MCF7 breast is 3.5 µM; in the assay with SF-295 CNS, 1.67 µM; in the assay with SK-MEL-28 melanoma, 8.28 µM. Also, the TGI was 49.7 µM with A498 renal; 88.2 µM in the assay with ACHN renal; greater than 100 µM in the assay on HCT-15 colon; greater than 100 µM with HT29 colon; 29.3 µM in the assay on KM12 colon; 17.6 µM in the assay with M14 melanoma. The TGI in the assay with MCF7 breast stood at 25.5 µM; with SF-295 CNS, 5.08 µM; in the assay with SK-MEL-28 melanoma, 45.6 µM.

Take `CC(=O)OCC1OC(n2cnc3nc(Br)[nH]c(=O)c32)C(OC(C)=O)C1OC(C)=O` (stereo not drawn): the TGI in the assay on A498 renal, with ACHN renal, in the assay on HCT-15 colon, in the assay on HT29 colon, in the assay on KM12 colon and in the assay with M14 melanoma was greater than 100 µM each time. The TGI in the assay on MCF7 breast, in the assay with SF-295 CNS and in the assay with SK-OV-3 ovarian was greater than 100 µM throughout.

As to `COC(=O)c1c(O)ccc2c1c1cc3ccccc3cc1n2Cc1cc(OC)cc(OC)c1`, the TGI is greater than 34.3 µM in the assay on A498 renal; greater than 100 µM in the assay with ACHN renal; greater than 100 µM in the assay on HCT-15 colon; greater than 48.1 µM in the assay on HT29 colon; greater than 27.1 µM in the assay on KM12 colon; greater than 100 µM in the assay with M14 melanoma. Further, the TGI is greater than 100 µM in the assay on MCF7 breast, 7.18 µM in the assay on SF-295 CNS and greater than 100 µM in the assay on SK-MEL-28 melanoma.

`O=C1c2ccccc2C(=O)N1n1c(Cc2ccc(Cl)cc2)n[nH]c1=O`: the TGI in the assay on A498 renal, with ACHN renal, in the assay with HCT-15 colon, in the assay on HT29 colon, in the assay on KM12 colon and in the assay with M14 melanoma was greater than 100 µM throughout. The TGI with MCF7 breast, in the assay on SF-295 CNS and in the assay with SK-MEL-28 melanoma was greater than 100 µM each time.

As to `CCOP(=O)(CCCC(O)CNc1nc(N)nc(Cl)c1N=Nc1ccc(Cl)cc1)OCC` (stereo not drawn), the TGI in the assay with A498 renal stood at 20.7 µM; in the assay with ACHN renal, 15.4 µM; with HCT-15 colon, 20.2 µM; in the assay with HT29 colon, 23.4 µM; in the assay on KM12 colon, 25 µM; in the assay on MCF7 breast, 27 µM. Also, the TGI was found to be 21.7 µM with SF-295 CNS, 20.8 µM in the assay with SK-MEL-28 melanoma and 19.2 µM with SK-OV-3 ovarian.

As to `Cn1cnc(N2CCCC2)c(C#N)c1=S`, the TGI in the assay on A498 renal, with ACHN renal, with HCT-15 colon, in the assay with HT29 colon, with KM12 colon and in the assay on M14 melanoma was greater than 100 µM in each case. In addition, the TGI with MCF7 breast, with SF-295 CNS and in the assay with SK-MEL-28 melanoma was greater than 100 µM each time.

As for `COc1cc(C2c3cc4c(cc3OC(NNc3ccccc3)C2C)OCO4)cc(OC)c1OC` (stereo not drawn), the TGI in the assay on A498 renal was 6.76 µM; with ACHN renal, 27.5 µM; in the assay on HT29 colon it was 6.61 µM; in the assay on KM12 colon, 38 µM; in the assay with M14 melanoma, 22.7 µM; with MCF7 breast, greater than 35.7 µM. Besides, the results for the TGI with SF-295 CNS, in the assay on SK-MEL-28 melanoma and in the assay with SK-OV-3 ovarian were 5.11 µM, greater than 100 µM and greater than 100 µM, respectively.

Turning to `CC(=O)O[C@H]1C(=O)[C@@]2(C)[C@H]([C@H](OC(=O)c3ccccc3)[C@]3(O)C[C@H](OC(=O)[C@H](O)[C@@H](NC(=O)c4ccccc4)c4ccc5ccccc5c4)C(C)=C1C3(C)C)[C@]1(OC(C)=O)CO[C@@H]1C[C@@H]2O`, the TGI in the assay with A498 renal is 6.96 µM; in the assay on ACHN renal, greater than 50 µM; in the assay on HCT-15 colon it was 8.4 µM; with HT29 colon, 1.96 µM; in the assay with M14 melanoma, 1.85 µM; in the assay on MCF7 breast, 0.879 µM. Further, the TGI is 1.89 µM in the assay on SF-295 CNS, greater than 23.1 µM with SK-MEL-28 melanoma and 0.836 µM in the assay on SK-OV-3 ovarian.

With `O=c1cc(-c2ccccc2)[nH]c2ncccc12`, the TGI in the assay on A498 renal is greater than 100 µM; in the assay on ACHN renal, greater than 100 µM; in the assay with HT29 colon it was 0.426 µM; with KM12 colon it was 15.7 µM; in the assay with M14 melanoma, greater than 100 µM; in the assay on MCF7 breast, greater than 100 µM. Besides, the TGI with SF-295 CNS was 0.269 µM; in the assay on SK-MEL-28 melanoma, greater than 100 µM; in the assay with SK-OV-3 ovarian, 1.89 µM.
